Results on 22 compounds are retold here after patent US8722720B2, “Imidazole derivatives as IDO inhibitors” (NewLink Genetics Corporation, priority 2010, dated 2014).

This assay addresses T1, purified human IDO protein (Homo sapiens, UniProt P14902).
T1 construct: 2 extra amino acids (linker from the BglII cloning site of pQE70); made in house; host or cells: E. coli M15(pREP4) with plasmid pQE70-hIDO
In words: Enzymatic IDO assay (kynurenine production, absorbance at 480 nm). To be noted: values reported in ranges. Format: biochemical. In outline: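 Inhibitors (final 1 mM to 5 nM, in 50 mM potassium phosphate) preincubated with enzyme 5 min at 25 °C, then 200 μM L-tryptophan added, 15 min at 37 °C. TCA stop and 60 °C hydrolysis to kynurenine, detected with p-dimethylaminobenzaldehyde at 480 nm. IC50 by nonlinear regression.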

The mark [1] stands for this setting: recombinant human IDO, read-out: hIDO IC50.

pIC50: −log10 of the molar value. Where a name gives a salt, the structure may show the parent alone. Read-outs that look alike come from different tables or passages of the source.

T1 sequence (P14902 whole entry P110S/E119G): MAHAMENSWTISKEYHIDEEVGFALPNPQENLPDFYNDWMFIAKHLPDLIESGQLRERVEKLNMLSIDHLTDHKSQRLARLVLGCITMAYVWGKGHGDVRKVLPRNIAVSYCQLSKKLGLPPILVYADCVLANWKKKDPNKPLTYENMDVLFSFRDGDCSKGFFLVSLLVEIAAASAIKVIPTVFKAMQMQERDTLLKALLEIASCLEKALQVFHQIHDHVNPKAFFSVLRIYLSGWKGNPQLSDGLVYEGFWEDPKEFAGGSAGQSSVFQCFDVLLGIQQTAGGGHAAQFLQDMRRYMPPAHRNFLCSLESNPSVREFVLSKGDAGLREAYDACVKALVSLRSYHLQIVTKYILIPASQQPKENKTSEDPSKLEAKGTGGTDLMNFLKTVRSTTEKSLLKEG

On to `CCOC(=O)/C=C/c1ccccc1-c1c[nH]cn1` [compound 1014, (E)-ethyl 3-(2-(1H-imidazol-4-yl)phenyl)acrylate], for which the pIC50 (commonly −log10 of the IC50, conventionally taken in molar units) under setting [1] was 4.00 to 5.00. The same measure, in the same setting: the figure for `CC(O)(COc1ccccc1-c1c[nH]cn1)c1cccs1` (stereo not shown) [compound 977, 1-(2-(1H-imidazol-4-yl)phenoxy)-2-(thiophen-2-yl)propan-2-ol] is 4.00 to 5.00; for `Nc1ncccc1C(=O)Nc1ccc(CCOc2ccccc2-c2c[nH]cn2)c(Cl)c1` [compound 1345, N-(4-(2-(2-(1H-imidazol-4-yl)phenoxy)ethyl)-3-chlorophenyl)-2-aminonicotinamide] it is more than 6.00. On the same count and under the same terms, the figure for `c1ccc(-c2c[nH]cn2)c(OCCc2ccc(N3CCCC3)cc2)c1` [compound 1225, 4-(2-(4-(pyrrolidin-1-yl)phenethoxy)phenyl)-1H-imidazole] is 4.00 to 5.00; for `c1csc(CCOc2ccccc2-c2c[nH]cn2)c1` [compound 1198, 4-(2-(2-(thiophen-2-yl)ethoxy)phenyl)-1H-imidazole] it is 4.00 to 5.00; for `c1ccc(-c2cncn2-c2ccccc2)cc1` [compound 1108, 1,5-diphenyl-1H-imidazole] it is 4.00 to 5.00. `O=C(Nc1ccc(CCOc2ccccc2-c2c[nH]cn2)cc1)NC1CCOCC1` [compound 1263, 1-(4-(2-(2-(1H-imidazol-4-yl)phenoxy)ethyl)phenyl)-3-(tetrahydro-2H-pyran-4-yl)urea]: the pIC50 under setting [1] was 4.00 to 5.00. Still for that read-out and setting: then `c1ccc(-c2c[nH]cn2)c(OCc2ccc3occc3c2)c1` [compound 1028, 4-(2-(benzofuran-5-ylmethoxy)phenyl)-1H-imidazole], with 4.00 to 5.00. The same measure, in the same setting: then `CC(COc1ccccc1-c1c[nH]cn1)C1CCCCC1` (stereo not shown) [compound 1052, 4-(2-(2-cyclohexylpropoxy)phenyl)-1H-imidazole hydrochloride], with 5.00 to 6.00. Same read-out and setting: then `O=C(COc1ccccc1-c1c[nH]cn1)c1ccc2ccsc2c1` [compound 1018, 2-(2-(1H-imidazol-4-yl)phenoxy)-1-(benzo[b]thiophen-6-yl)ethanone], with 5.00 to 6.00; and `c1nc(-c2ccc3[nH]ccc3c2)c[nH]1` [compound 949, 5-(1H-imidazol-4-yl)-1H-indole], with less than 4.00.

For `c1ccc(-c2c[nH]cn2)c(OCCc2csc3ccccc23)c1` [compound 1202, 4-(2-(2-(benzo[b]thiophen-3-yl)ethoxy)phenyl)-1H-imidazole], under setting [1], the pIC50 was 4.00 to 5.00. On the same count and under the same terms, the figure for `O=C(Cc1cccc([N+](=O)[O-])c1)Nc1ccc(CCOc2ccccc2-c2c[nH]cn2)cc1` [compound 1241, N-(4-(2-(2-(1H-imidazol-4-yl)phenoxy)ethyl)phenyl)-2-(3-nitrophenyl)acetamide] is 5.00 to 6.00.

On to `Oc1ccc(Cl)cc1-c1cncn1-c1cccnc1` [compound 1122, 4-chloro-2-(1-(pyridin-3-yl)-1H-imidazol-5-yl)phenol], for which the pIC50 under setting [1] was 4.00 to 5.00. Regarding `O=C(Cc1cnccn1)Nc1ccc(CCOc2ccccc2-c2c[nH]cn2)cc1` [compound 1156, N-(4-(2-(2-(1H-imidazol-4-yl)phenoxy)ethyl)phenyl)-2-(pyrazin-2-yl)acetamide], the negative logarithm of the IC50 (pIC50) under setting [1] was 5.00 to 6.00. For the compound `Oc1c(Cl)cc(Cl)c(OCCC2CCCCC2)c1-c1cnc[nH]1` [compound 1086, 4,6-dichloro-3-(2-cyclohexylethoxy)-2-(1H-imidazol-5-yl)phenol], where the note is “hIDO IC50, recombinant human IDO”, the pIC50 is less than 4.00. In the case of `Oc1ccc(OCc2ccccc2)cc1-c1cnc[nH]1` [compound 1105, 4-(benzyloxy)-2-(1H-imidazol-5-yl)phenol], the pIC50 under setting [1] is 4.00 to 5.00.

Consider `O=C(Nc1ccc(CCOc2ccccc2-c2c[nH]cn2)cc1)c1cc(=O)[nH]c(=O)[nH]1` [compound 1272], for which the pIC50 under setting [1] is 5.00 to 6.00. On the same count and under the same terms, the figure for `O=C(CC1CCOCC1)Nc1ccc(CCOc2ccccc2-c2c[nH]cn2)c(C(F)(F)F)c1` [compound 1305, N-(4-(2-(2-(1H-imidazol-4-yl)phenoxy)ethyl)-3-(trifluoromethyl)phenyl)-2-(tetrahydro-2H-pyran-4-yl)acetamide] is more than 6.00; for `CN(C)c1ccc(CCOc2ccccc2-c2c[nH]cn2)cc1` [compound 1181, 4-(2-(2-(1H-imidazol-4-yl)phenoxy)ethyl)-N,N-dimethylaniline] it is 4.00 to 5.00.

As to `O=C(CC1CCOCC1)Nc1ccc(CCOc2ccccc2-c2c[nH]cn2)cc1` [compound 1211, N-(4-(2-(2-(1H-imidazol-4-yl)phenoxy)ethyl)phenyl)-2-(tetrahydro-2H-pyran-4-yl)acetamide], under setting [1], the pIC50 was 5.00 to 6.00.

For the compound `CC(C)(C)CCOc1ccc(O)c(-c2cnc[nH]2)c1` [compound 1107, 4-(3,3-dimethylbutoxy)-2-(1H-imidazol-5-yl) phenol], under setting [1], the pIC50 was 4.00 to 5.00.
